Laboratory results as given in ChEMBL document CHEMBL3045088, “Synthesis and cytotoxic activity of genistein derivatives” (2010).

How the values were obtained:
Type in all cases: functional
SGC-7901 = test: Growth inhibition of Homo sapiens (human) SGC7901 cells by MTT assay
HL-60 = test: Growth inhibition of Homo sapiens (human) HL60 cells by MTT assay
HT-29 = test: Growth inhibition of Homo sapiens (human) HT-29 cells by MTT assay

| Structure (SMILES) | GI (SGC-7901) [µM] | GI (HL-60) [µM] | GI (HT-29) [µM] |
| --- | --- | --- | --- |
| CCCCCCCCCCOc1ccc(-c2coc3cc(OC(F)F)cc(OCCCCCCCCCC)c3c2=O)cc1 [4',5-DI-N-DECOXY-7-GEM-DIFLUOROMETHYLENATED GENISTEIN] | 3.3 | 1.63 | 14.26 |
| CCCCCCCOc1ccc(-c2coc3cc(OC(F)F)cc(OCCCCCCC)c3c2=O)cc1 [4',5-DI-N-HEPTOXY-7-GEM-DIFLUOROMETHYLENATED GENISTEIN] | 3.39 | 1.41 | 5.25 |
| CCCCCCCCOc1ccc(-c2coc3cc(OC(F)F)cc(OCCCCCCCC)c3c2=O)cc1 [4',5-DI-N-OCTOXY-7-GEM-DIFLUOROMETHYLENATED GENISTEIN] | 1.64 | 0.47 | 1.86 |
| CCCOc1ccc(-c2coc3cc(OC(F)F)cc(OCCC)c3c2=O)cc1 [4',5-DI-N-PROPOXY-7-GEM-DIFLUOROMETHYLENATED GENISTEIN] | 2.15 | 0.54 | 2.5 |
| O=c1c(-c2ccc(OCc3ccccc3)cc2)coc2cc(OC(F)F)cc(OCc3ccccc3)c12 [4',5-DIBENZYLOXY-7-GEM-DIFLUOROMETHYLENATED GENISTEIN] | 4.24 | 1.29 | 2.82 |
| CCOc1ccc(-c2coc3cc(OC(F)F)cc(OCC)c3c2=O)cc1 [4',5-DIETHOXY-7-GEM-DIFLUOROMETHYLENATED GENISTEIN] | 5.51 | 1.75 | 11.2 |
| COc1ccc(-c2coc3cc(OC(F)F)cc(OC)c3c2=O)cc1 [4',5-DIMETHOXY-7-GEM-DIFLUOROMETHYLENATED GENISTEIN] | 6.41 | 4.61 | 9.83 |
| O=c1c(-c2ccc(OC(F)F)cc2)coc2cc(OC(F)F)cc(O)c12 [4',7-DI-GEM-DIFLUOROMETHYLENATED GENISTEIN] | 5.54 | 5.5 | 5.35 |
| CC(=O)Oc1ccc(-c2coc3cc(OC(C)=O)cc(O)c3c2=O)cc1 [4',7-DIACETOXY-5-HYDROXYGENISTEIN] | 11.24 | 5.86 | 19.4 |
| C=CCOc1ccc(-c2coc3cc(OCC=C)cc(O)c3c2=O)cc1 [4',7-DIALLYLOXY-5-HYDROXYGENISTEIN] | 6.51 | 3.44 | 14.2 |
| CCCCCCCCCCOc1ccc(-c2coc3cc(OCCCCCCCCCC)cc(O)c3c2=O)cc1 [4',7-DIDECYLOXY-5-HYDROXYGENISTEIN] | 4.27 | 3.09 | 11.6 |
| COc1ccc(-c2coc3cc(OC)cc(O)c3c2=O)cc1 [4',7-DIMETHOXY-5-HYDROXYGENISTEIN] | 7.78 | 5.14 | 4.18 |
| CCCCCCCCOc1ccc(-c2coc3cc(OCCCCCCCC)cc(O)c3c2=O)cc1 [4',7-DIOCTYLOXY-5-HYDROXYGENISTEIN] | 4.82 | 1.62 | 10.8 |
| CC(=O)Oc1cc(O)c2c(=O)c(-c3ccc(O)cc3)coc2c1 [7-ACETOXY-4',5-DIHYDROXYGENISTEIN] | 8.11 | 4.95 | 4.21 |
| O=c1c(-c2ccc(O)cc2)coc2cc(OC(F)F)cc(O)c12 [7-GEM-DIFLUOROMETHYLENATED GENISTEIN] | 4.59 | 3.53 | 4.56 |
| O=c1c(-c2ccc(O)cc2)coc2cc(O)cc(O)c12 [GENISTEIN] | 5.78 | 4.82 | 4.11 |
| COc1cc(O)c2c(=O)c(-c3ccc(O)cc3)coc2c1 [PRUNETIN] | 3.94 | 4.35 | 5.11 |
